Assay results from paper PMC12097107, “Identification and Biological Evaluation of a Novel CLK4 Inhibitor Targeting Alternative Splicing in Pancreatic Cancer Using Structure‐Based Virtual Screening” (Advanced Science, 2025).

Columns and labels:
[1] = molecular target: T1, CLK4 (Cdc-like kinase 4; Cdc2-like kinase 4) (Homo sapiens, UniProt Q9HAZ1); assay: LanthaScreen Eu kinase binding assay (FRET)
Source text: (§1) LanthaScreen Eu kinase binding assay (FRET) on CLK4 (Cdc-like kinase 4; Cdc2-like kinase 4)

[2] = molecular target: T1, CLK4 (Cdc-like kinase 4; Cdc2-like kinase 4); assay: LanthaScreen Eu kinase binding assay (FRET); format: biochemical
Source text: as §1

CLK1 [3] = molecular target: T2, CLK1 (Homo sapiens, UniProt P49759); assay: biochemical; set-up: Thermo Fisher SelectScreen kinase assays (LanthaScreen Eu binding, Adapta or Z'LYTE), per cent inhibition
T2 construct: Thermo Fisher SelectScreen panel kinase
Description: (§2) Enzyme‐based assays were carried out by Thermo Fisher Scientific (Waltham, MA, USA). Thermo Fisher Scientific utilizes LanthaScreen Eu Kinase Binding Assay Technology (www.thermofisher.com/lanthascreen), which is based on fluorescence resonance energy transfer (FRET), to conduct the kinase activity assays. Fluorescent receptor dyes are conjugated to the kinase, and an Eu‐labeled anti‐tag antibody is added to detect the phosphorylated fluorescein‐labeled substrate. The fluorescence‐labeled kinase, antibody, and test compounds are combined in an appropriate buffer solution. After incubation, the mixture is placed in a fluorescent plate reader capable of detecting FRET signals. FRET efficiency is calculated by comparing the ratio of the acceptor emission to the donor emission. The selected compounds were evaluated at specified concentrations, and IC50 values were determined using GraphPad Prism software (La Jolla, CA, USA). Each enzymatic activity assay was performed in duplicate, following the quality control guidelines of Thermo Fisher Scientific. Kinase profiling was carried out using the SelectScreen kinase profiling service provided by Thermo Fisher Scientific, with supplementary assays such as Adapta and Z'LYTE included when available for the respective kinases. The detailed protocols are available at the following links: www.thermofisher.com/adapta and https://www.thermofisher.com/z‐lyte. Selectivity is essential for kinase inhibitors to minimize off‐target effects and reduce adverse reactions. Selective inhibitors also enable researchers to better understand the specific functions of targets like CLK4 in physiological and pathological pathways. Therefore, we further evaluated the selectivity of compound 150441 using kinase profiling analysis. The compound was tested at a concentration of 30 nM against a panel of 60 kinases from various families using Thermo Fisher SelectScreen kinase profiling services (Figure 7 ). […] In addition, CLKs comprise four isoforms: CLK1, CLK2, CLK3, and CLK4.

CLK2 [4] = molecular target: T3, CLK2 (Homo sapiens, UniProt P49760); assay: biochemical; set-up: Thermo Fisher SelectScreen kinase assays (LanthaScreen Eu binding, Adapta or Z'LYTE), per cent inhibition
T3 construct: Thermo Fisher SelectScreen panel kinase
Description: as §2

CLK3 [5] = molecular target: T4, CLK3 (Homo sapiens, UniProt P49761); assay: biochemical; set-up: Thermo Fisher SelectScreen kinase assays (LanthaScreen Eu binding, Adapta or Z'LYTE), per cent inhibition
T4 construct: Thermo Fisher SelectScreen panel kinase
Description: as §2

[6] = molecular target: T1, CLK4 (Cdc-like kinase 4; Cdc2-like kinase 4); assay: biochemical; set-up: Thermo Fisher SelectScreen kinase assays (LanthaScreen Eu binding, Adapta or Z'LYTE), per cent inhibition
Description: as §2

CLK3 [7] = molecular target: T4, CLK3; assay: SelectScreen kinase profiling (assay format per kinase not given); format: biochemical; details: read-out: % inhibition at 30 nM
CLK1 [8] = molecular target: T2, CLK1; assay: as above; format: biochemical; details: read-out: % inhibition at 30 nM
CLK2 [9] = molecular target: T3, CLK2; assay: as above; format: biochemical; details: read-out: % inhibition at 30 nM

T1 sequence (Q9HAZ1 whole entry): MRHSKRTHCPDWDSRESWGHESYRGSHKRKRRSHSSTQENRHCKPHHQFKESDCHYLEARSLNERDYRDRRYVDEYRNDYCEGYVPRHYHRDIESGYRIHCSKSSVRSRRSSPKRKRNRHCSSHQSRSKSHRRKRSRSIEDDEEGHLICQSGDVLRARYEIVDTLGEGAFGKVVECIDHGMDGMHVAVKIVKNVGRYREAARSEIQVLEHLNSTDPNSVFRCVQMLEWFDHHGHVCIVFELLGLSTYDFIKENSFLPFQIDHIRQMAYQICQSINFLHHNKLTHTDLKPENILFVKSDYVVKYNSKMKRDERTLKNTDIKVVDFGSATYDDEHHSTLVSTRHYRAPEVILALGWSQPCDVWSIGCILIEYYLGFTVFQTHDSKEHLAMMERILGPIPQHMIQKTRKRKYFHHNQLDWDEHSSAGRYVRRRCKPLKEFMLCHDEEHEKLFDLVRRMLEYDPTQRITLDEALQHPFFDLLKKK
T2 sequence (P49759 whole entry): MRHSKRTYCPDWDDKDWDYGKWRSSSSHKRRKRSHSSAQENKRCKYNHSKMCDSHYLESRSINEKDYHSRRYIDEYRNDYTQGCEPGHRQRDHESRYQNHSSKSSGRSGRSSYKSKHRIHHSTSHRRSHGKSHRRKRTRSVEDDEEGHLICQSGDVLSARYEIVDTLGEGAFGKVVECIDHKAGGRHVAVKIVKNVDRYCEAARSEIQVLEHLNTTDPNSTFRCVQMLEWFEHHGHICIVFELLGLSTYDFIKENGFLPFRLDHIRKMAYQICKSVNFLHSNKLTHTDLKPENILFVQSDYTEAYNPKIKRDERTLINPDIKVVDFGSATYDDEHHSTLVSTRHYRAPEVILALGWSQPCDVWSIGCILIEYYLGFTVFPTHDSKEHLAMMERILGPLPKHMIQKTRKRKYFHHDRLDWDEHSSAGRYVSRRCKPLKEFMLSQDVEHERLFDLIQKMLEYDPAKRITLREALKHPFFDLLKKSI
T4 sequence (P49761 whole entry): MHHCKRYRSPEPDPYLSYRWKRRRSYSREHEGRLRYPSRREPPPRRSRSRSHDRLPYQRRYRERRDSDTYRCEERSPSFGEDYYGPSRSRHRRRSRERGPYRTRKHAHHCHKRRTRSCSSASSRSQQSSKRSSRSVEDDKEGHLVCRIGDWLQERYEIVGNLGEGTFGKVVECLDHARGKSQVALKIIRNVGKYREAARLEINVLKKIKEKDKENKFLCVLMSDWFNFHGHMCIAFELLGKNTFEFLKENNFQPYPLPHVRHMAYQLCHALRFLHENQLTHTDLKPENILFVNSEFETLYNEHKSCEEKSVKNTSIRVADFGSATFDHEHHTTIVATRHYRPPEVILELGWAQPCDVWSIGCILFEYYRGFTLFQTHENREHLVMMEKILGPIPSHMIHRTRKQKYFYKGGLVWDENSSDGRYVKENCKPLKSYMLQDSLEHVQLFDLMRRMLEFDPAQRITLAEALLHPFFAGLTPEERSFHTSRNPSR
T3 sequence (P49760 whole entry): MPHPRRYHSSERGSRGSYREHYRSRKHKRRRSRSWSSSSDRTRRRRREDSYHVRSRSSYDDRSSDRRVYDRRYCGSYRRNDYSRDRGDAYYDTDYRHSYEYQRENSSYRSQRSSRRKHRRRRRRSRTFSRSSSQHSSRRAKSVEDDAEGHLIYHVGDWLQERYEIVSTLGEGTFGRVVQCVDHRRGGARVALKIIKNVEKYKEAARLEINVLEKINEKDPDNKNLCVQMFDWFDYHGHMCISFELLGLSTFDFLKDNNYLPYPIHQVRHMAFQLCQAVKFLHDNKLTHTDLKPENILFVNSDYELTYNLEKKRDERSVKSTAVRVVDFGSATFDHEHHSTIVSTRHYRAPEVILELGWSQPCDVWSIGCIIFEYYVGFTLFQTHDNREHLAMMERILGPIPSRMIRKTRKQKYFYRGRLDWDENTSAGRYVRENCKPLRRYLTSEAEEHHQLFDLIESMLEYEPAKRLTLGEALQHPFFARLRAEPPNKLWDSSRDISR

Row | IC50 [1] [µM] | inhibition at 1 µM (CLK1 [3]) [%] | inhibition at 1 µM (CLK2 [4]) [%] | inhibition at 1 µM (CLK3 [5]) [%] | inhibition at 1 µM [6] [%] | SMILES | further results
1 | 0.101 |  |  |  |  | COc1ccc2c(c1)c1c(C)c3cnccc3c(C)c1n2CC1CO1 (centres unmarked) [compound 150836, 150836] | 
2 |  |  |  |  |  | COc1ccc2[nH]c3c(C)c4cc[n+]([O-])cc4c(C)c3c2c1 [compound 237069, 237069] | inhibition at 1 µM [2]: 47%
3 | 0.0988 |  |  |  |  | COc1ccc2[nH]c3c(C)c4ccncc4c(C)c3c2c1 [compound 69187, 69187] | 
4 | 0.121 |  |  |  |  | Cc1c2cnccc2c(C)c2c1c1ccccc1n2Cc1ccccc1 [compound 322087, 322087] | 
5 |  |  |  |  |  | Cc1c2c(C(N)=O)nccc2c(C)c2c1c1ccccc1n2Cc1ccccc1 [compound 320613, 320613] | inhibition at 1 µM [2]: 3%
6 | 0.0348 | 65 | 69 | 7 | 95 | Cc1c2cnccc2c(C)c2c1c1ccccc1n2CCNCc1ccccc1 [compound 164016, 164016] | 
7 | 0.0214 | 75 | 62 | 6 | 98 | Cc1c2cnccc2c(C)c2c1c1ccccc1n2CCN(C)C [compound 150441, 150441] | inhibition at 0.03 µM (CLK3 [7]): 1.8%; inhibition at 0.03 µM (CLK1 [8]): 7%; inhibition at 0.03 µM (CLK2 [9]): 9.1%
8 | 0.0382 | 86 | 81 | 4 | 98 | Cc1c2cnccc2c(C)c2c1c1ccccc1n2CC1CO1 (centres unmarked) [compound 152731, 152731] | 
